Data published in ChEMBL document CHEMBL1138341, “(S)-N-{3-[1-cyclopropyl-1-(2,4-difluoro-phenyl)-ethyl]-1H-indol-7-yl}-methanesulfonamide: a potent, nonsteroidal, functional antagonist of the mineralocorticoid receptor” (J Med Chem, 2007).
pKi: −log10 of the molar value. Calls of active or inactive are those of the source. No cut-off for these calls is given here.

Legend:
Estrogen receptor = target: T1, Estrogen receptor (Homo sapiens, UniProt P03372); assay: Binding affinity to human estrogen receptor
T1 sequence (P03372 whole entry): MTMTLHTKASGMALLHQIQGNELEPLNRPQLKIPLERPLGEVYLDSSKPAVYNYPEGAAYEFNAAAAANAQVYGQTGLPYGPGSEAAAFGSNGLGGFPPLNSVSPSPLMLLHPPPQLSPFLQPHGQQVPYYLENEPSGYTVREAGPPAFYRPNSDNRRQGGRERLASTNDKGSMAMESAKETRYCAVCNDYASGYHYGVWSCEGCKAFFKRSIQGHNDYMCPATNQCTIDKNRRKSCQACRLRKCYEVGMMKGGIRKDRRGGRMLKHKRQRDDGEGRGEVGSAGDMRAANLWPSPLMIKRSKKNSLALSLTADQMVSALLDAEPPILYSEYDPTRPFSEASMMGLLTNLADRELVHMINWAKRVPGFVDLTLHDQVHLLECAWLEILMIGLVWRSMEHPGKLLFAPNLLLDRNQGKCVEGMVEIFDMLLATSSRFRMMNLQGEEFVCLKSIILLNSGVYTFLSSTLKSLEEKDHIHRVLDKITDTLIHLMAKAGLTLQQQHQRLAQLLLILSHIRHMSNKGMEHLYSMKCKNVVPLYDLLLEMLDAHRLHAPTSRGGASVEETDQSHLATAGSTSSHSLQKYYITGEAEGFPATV

Androgen receptor = target: T2, Androgen receptor (Homo sapiens, UniProt P10275); assay: Binding affinity to human androgen receptor
T2 sequence (P10275 whole entry): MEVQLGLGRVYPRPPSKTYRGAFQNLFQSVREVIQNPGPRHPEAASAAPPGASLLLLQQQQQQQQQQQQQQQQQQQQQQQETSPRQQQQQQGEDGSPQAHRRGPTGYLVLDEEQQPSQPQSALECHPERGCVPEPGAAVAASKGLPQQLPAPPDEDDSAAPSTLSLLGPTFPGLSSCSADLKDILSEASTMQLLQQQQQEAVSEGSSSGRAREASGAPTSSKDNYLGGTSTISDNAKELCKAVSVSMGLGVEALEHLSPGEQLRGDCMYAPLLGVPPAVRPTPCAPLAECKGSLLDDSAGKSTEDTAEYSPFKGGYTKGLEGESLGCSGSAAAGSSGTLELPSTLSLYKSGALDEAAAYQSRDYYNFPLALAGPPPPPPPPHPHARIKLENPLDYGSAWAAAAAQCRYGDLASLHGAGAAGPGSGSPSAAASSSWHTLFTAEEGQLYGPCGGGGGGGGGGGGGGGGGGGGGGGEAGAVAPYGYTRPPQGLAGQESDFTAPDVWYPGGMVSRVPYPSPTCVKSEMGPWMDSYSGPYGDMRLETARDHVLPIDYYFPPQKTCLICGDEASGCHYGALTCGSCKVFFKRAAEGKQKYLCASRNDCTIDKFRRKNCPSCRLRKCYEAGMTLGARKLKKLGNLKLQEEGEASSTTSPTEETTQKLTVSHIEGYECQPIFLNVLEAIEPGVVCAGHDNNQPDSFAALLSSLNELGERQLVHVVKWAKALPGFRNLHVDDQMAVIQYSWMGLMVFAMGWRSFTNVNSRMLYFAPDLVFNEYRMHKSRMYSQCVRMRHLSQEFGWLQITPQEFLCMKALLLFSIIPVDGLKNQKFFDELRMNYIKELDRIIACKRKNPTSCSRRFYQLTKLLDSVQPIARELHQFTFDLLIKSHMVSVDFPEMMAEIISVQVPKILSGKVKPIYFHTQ

Glucocorticoid receptor = target: T3, Glucocorticoid receptor (Homo sapiens, UniProt P04150); assay: Binding affinity to human glucocorticoid receptor
T3 sequence (P04150 whole entry): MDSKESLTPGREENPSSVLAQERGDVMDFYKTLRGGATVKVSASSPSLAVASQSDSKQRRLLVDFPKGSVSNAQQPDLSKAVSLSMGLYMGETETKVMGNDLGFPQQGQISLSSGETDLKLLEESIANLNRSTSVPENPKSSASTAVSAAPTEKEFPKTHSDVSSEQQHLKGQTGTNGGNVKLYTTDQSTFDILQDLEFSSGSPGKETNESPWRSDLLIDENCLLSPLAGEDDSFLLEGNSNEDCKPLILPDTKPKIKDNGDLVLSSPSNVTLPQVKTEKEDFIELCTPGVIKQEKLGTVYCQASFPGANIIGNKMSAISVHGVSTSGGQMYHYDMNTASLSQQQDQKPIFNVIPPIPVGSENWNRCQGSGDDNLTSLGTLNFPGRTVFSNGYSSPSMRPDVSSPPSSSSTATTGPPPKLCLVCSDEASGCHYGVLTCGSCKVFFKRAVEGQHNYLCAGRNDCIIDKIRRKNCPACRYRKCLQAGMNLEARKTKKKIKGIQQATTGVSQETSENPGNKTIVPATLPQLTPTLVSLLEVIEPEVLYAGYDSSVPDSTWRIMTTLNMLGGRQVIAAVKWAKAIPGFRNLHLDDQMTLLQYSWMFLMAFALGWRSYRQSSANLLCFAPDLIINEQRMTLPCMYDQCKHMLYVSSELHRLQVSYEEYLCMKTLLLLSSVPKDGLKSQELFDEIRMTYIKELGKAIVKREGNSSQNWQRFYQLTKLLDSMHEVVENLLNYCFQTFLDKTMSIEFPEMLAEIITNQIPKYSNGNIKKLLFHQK

Progesterone receptor = target: T4, Progesterone receptor (Homo sapiens, UniProt P06401); assay: Binding affinity to human progesterone receptor
T4 sequence (P06401 whole entry): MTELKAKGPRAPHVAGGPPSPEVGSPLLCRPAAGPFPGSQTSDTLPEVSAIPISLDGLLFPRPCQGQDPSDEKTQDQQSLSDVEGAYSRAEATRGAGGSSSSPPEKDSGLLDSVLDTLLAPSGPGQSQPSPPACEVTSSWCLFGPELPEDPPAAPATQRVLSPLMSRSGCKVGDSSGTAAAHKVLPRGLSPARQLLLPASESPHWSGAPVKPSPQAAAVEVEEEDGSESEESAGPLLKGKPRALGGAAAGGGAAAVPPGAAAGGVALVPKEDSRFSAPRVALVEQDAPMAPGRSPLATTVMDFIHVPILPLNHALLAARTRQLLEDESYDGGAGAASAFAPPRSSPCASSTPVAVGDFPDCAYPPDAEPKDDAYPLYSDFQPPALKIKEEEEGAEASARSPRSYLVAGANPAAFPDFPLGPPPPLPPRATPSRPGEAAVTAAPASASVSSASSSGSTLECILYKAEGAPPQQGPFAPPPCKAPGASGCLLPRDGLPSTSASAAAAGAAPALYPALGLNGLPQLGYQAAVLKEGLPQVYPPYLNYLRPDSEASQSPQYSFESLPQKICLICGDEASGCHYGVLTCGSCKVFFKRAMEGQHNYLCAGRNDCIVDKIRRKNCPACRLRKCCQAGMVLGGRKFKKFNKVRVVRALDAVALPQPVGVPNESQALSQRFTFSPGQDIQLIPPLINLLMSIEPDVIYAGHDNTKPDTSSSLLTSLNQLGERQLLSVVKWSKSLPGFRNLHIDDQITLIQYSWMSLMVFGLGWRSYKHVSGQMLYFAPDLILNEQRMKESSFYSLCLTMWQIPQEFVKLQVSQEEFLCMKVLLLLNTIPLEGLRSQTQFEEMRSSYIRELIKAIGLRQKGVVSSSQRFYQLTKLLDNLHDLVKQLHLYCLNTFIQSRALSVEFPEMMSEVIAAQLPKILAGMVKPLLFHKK

Rattus norvegicus [1] = assay: Reduction in aldosterone-induced hypertension in salt-loaded uni-nephrectomized Sprague-Dawley rat at 30 mg/kg, po qd after 14 days; type: functional, organism-based; parameters: dose 30 mg/kg
[2] = target: T5, Mineralocorticoid receptor (Homo sapiens, UniProt P08235); assay: Binding affinity to human mineralocorticoid receptor
T5 sequence (P08235 whole entry): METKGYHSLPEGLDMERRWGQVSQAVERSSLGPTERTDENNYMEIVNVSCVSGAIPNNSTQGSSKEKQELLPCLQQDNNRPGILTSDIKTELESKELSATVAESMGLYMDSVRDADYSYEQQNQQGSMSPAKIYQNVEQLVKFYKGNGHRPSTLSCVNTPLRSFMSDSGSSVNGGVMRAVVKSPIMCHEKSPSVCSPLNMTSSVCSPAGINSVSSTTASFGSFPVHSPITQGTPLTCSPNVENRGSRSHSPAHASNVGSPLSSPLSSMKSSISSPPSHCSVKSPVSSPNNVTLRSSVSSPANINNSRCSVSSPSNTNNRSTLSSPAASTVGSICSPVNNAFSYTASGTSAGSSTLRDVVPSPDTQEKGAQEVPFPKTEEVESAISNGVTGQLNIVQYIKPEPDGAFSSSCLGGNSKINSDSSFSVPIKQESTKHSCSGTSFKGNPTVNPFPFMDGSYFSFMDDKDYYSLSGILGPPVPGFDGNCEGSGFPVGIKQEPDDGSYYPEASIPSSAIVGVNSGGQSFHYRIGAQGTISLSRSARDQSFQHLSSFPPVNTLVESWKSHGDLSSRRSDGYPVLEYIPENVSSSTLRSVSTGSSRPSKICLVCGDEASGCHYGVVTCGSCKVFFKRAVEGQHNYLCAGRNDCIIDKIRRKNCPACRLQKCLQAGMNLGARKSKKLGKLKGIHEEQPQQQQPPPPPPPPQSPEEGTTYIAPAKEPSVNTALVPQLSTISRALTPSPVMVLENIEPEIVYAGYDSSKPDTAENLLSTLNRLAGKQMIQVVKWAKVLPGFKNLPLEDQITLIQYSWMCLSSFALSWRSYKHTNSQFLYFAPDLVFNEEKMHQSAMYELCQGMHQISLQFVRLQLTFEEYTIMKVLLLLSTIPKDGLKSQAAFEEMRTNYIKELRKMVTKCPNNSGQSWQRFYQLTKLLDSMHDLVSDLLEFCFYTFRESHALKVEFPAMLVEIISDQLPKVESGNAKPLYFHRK

[3] = target: T6, Mineralocorticoid receptor (Homo sapiens) (UniProt P08235); assay: Antagonist activity at human mineralocorticoid receptor expressed in COS7 cells after 24 hrs by luciferase reporter gene assay; type: functional, cell-based; details: COS-7
T6 sequence (whole entry): T5 sequence (P08235 whole entry)

Rattus norvegicus [4] = assay: Reduction in aldosterone-induced hypertension in salt-loaded uni-nephrectomized Sprague-Dawley rat at 3 mg/kg, po qd after 14 days; type: functional, organism-based; parameters: dose 3 mg/kg

SMILES | pKi (Estrogen receptor) | pKi (Androgen receptor) | pKi (Glucocorticoid receptor) | pKi (Progesterone receptor) | Activity (Rattus norvegicus [1]) | pKi [2] | Kb [3] [nM] | Activity (Rattus norvegicus [4])
COC(=O)[C@@H]1CC2=CC(=O)CC[C@]2(C)C2C1C1CC[C@@]3(CCC(=O)O3)[C@@]1(C)[C@H]1O[C@@H]21 (stereo partly specified) [EPIERENONE] | < 5.96 | 5.05 | 5.75 | 4.53 | Active | 6.91 | 189 | 
C[C@@](c1ccc(F)cc1F)(c1c[nH]c2c(NS(C)(=O)=O)cccc12)C1CC1 | < 5.96 | 6.15 |  | 6.79 |  |  |  | Active
C[C@](c1ccc(F)cc1)(c1c[nH]c2c(NS(C)(=O)=O)cccc12)C1CC1 | < 5.96 | 6.23 | 6.41 | 6.50 |  | 8.12 | 115 | 
CC(=O)S[C@@H]1CC2=CC(=O)CC[C@]2(C)[C@H]2CC[C@@]3(C)[C@@H](CC[C@@]34CCC(=O)O4)[C@H]12 [SPIRONOLACTONE] | < 5.96 |  | 7.49 |  |  |  |  | 
C[C@@](c1ccc(F)cc1)(c1c[nH]c2c(NS(C)(=O)=O)cccc12)C1CC1 | < 5.96 | 6.07 | 6.78 | 6.86 |  | 8.81 | 38.2 | inactive
